The target of this assay is T1, Recombinant human Chk1 (GST-Chk1) (Homo sapiens, UniProt O14757).
T1 construct: made in house; host or cells: insect cells (baculovirus, Bac-to-Bac system)
T1 sequence (O14757 1-476): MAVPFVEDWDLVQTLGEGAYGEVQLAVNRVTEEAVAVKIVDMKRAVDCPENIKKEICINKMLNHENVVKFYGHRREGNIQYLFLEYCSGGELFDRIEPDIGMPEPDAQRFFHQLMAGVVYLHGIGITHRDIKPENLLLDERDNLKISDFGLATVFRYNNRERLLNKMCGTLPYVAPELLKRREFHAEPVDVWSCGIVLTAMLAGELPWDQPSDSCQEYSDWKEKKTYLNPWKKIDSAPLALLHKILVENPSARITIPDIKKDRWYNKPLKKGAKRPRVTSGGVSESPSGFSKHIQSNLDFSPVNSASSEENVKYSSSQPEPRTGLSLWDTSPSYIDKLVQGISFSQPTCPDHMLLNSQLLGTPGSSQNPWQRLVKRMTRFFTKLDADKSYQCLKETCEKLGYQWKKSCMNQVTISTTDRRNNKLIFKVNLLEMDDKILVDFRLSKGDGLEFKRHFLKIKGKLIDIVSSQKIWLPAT
In words: Chk1 DELFIA Kinase Assay. In kind it is biochemical. The method, then:
Recombinant human Chk1 was expressed as a fusion protein with glutathione S-transferase at the amino-terminus (GST-Chk1) using standard baculovirus vectors and (Bac-to-Bac®) insect cell expression system purchased from GIBCO™ Invitrogen. Recombinant protein expressed in insect cells was purified using glutathione sepharose (Amersham Biotech) using standard procedures described by the manufacturer.
Chk1 DELFIA® Kinase Assay:
Assays (25 μL) utilized 2 nM GST-Chk1 containing 10 mM Tris, pH 7.5, 20% glycerol, 50 mM sodium chloride (NaCl), 0.01% Surfact-Amps® 20, 1 μM peptide stubstrate (Biotin-GLYRSPSMPEN-amide) (SEQ ID NO: 2), 01.% BSA, 2 mM DTT, 4% DMSO, 600 μM ATP, 10 mM MgCl2 and reacted for 50 minutes at room temperature. Reactions were terminated with 100 μL of Stop buffer containing 1% BSA, 10 mM Tris, pH 8.0, 150 mM NaCl, 100 mM EDTA. Stopped reactions (100 μL) were transferred to 96 well NeutrAvidin plates (Pierce) to capture the biotin-peptide substrate during a 30 minute room temperature incubation. Wells were washed and reacted with 100 μL PerkinElmer Wallac Assay Buffer containing 21.5 ng/ml anti-phospho-Ser216-Cdc25c rabbit polyclonal antibody from Cell Signaling Technology (Beverly, Mass.) and 292 ng/ml europium labeled anti-rabbit-IgG for 1 hour at room temperature. Wells were washed and europium released from the bound antibody by addition of Enhancement Solution (100 μL) (PerkinElmer Wallac) and detected using a Perkin Elmer Wallac Envison™ 2100 multilabel reader using standard manufacturer settings.

Setting [1] is: GST-Chk1 kinase assay, bound given in nM.
[2] abbreviates: GST-Chk1 in vitro kinase assay, bound given in μM.

The structures appear in SMILES notation.

As usually defined, the IC50 is the concentration at which inhibition is half-maximal. Take `CCn1c(=O)c2c(C)[nH]nc2c2cc(C#CCN3[C@H](C)CCC[C@@H]3C)ccc21` [Compound I-37, 8-{3-[(2R,6S)-2,6-dimethylpiperidin-1-yl]prop-1-yn-1-yl}-5-ethyl-3-methyl-2,5-dihydro-4H-pyrazolo[4,3-c]quinolin-4-one]: under setting [1], the IC50 is < 500 nM.

Regarding `CCn1c(=O)c2c(C)[nH]nc2c2cc(C#CCN(C(C)C)C(C)(C)C)ccc21` [Compound I-38, 8-{3-[tert-butyl(isopropyl)amino]prop-1-yn-1-yl}-5-ethyl-3-methyl-2,5-dihydro-4H-pyrazolo[4,3-c]quinolin-4-one], under setting [1], the IC50 is < 500 nM.

Turning to `CCn1c(=O)c2c(C)[nH]nc2c2cc(C#CC(C)(C)NC(C)(C)C)ccc21` [Compound I-39, 8-[3-(tert-butylamino)-3-methylbut-1-yn-1-yl]-5-ethyl-3-methyl-2,5-dihydro-4H-pyrazolo[4,3-c]quinolin-4-one], under setting [1], the IC50 was < 500 nM.

With `CCn1c(=O)c2c(C)[nH]nc2c2cc(/C=C/CN3[C@H](C)CC[C@@H]3C)ccc21` [Compound I-41, 8-{(1E)-3-[(2R,5S)-2,5-dimethylpyrrolidin-1-yl]prop-1-en-1-yl}-5-ethyl-3-methyl-2,5-dihydro-4H-pyrazolo[4,3-c]quinolin-4-one], the IC50 under setting [1] is < 500 nM.

In the case of `CCn1c(=O)c2c(C)[nH]nc2c2ccc(CCCN3CCCC3)cc21` [Compound I-42, 5-ethyl-3-methyl-7-(3-pyrrolidin-1-ylpropyl)-2,5-dihydro-4H-pyrazolo[4,3-c]quinolin-4-one], the IC50 runs as follows: under setting [2], < 1000 nM; under setting [1], > 500 nM.

Regarding `CCN(CC)C/C=C/c1ccc2c(c1)c1n[nH]c(C)c1c(=O)n2CC` [Compound I-43, 8-[(1E)-3-(diethylamino)prop-1-en-1-yl]-5-ethyl-3-methyl-2,5-dihydro-4H-pyrazolo[4,3-c]quinolin-4-one], under setting [1], the IC50 is < 500 nM.

As for `CCn1c(=O)c2c(C)[nH]nc2c2cc(/C=C/CN(C(C)C)C(C)C)ccc21` [Compound I-44, 8-[(1E)-3-(diisopropylamino)prop-1-en-1-yl]-5-ethyl-3-methyl-2,5-dihydro-4H-pyrazolo[4,3-c]quinolin-4-one], the concentration for half-maximal inhibition (IC50) under setting [1] was < 500 nM.

On to `CCn1c(=O)c2c(C)[nH]nc2c2cc(/C=C/CN(C)Cc3ccccc3)ccc21` [Compound I-45, 8-{(1E)-3-[benzyl(methyl)amino]prop-1-en-1-yl}-5-ethyl-3-methyl-2,5-dihydro-4H-pyrazolo[4,3-c]quinolin-4-one], for which the IC50 under setting [1] was < 500 nM.

As to `CCN(CC)Cc1ccc(-c2ccc3c(c2)c2n[nH]c(C)c2c(=O)n3CC)s1` [Compound I-46, 8-{5-[(diethylamino)methyl]-2-thienyl}-5-ethyl-3-methyl-2,5-dihydro-4H-pyrazolo[4,3-c]quinolin-4-one], the IC50 under setting [1] is < 500 nM.

As for `Cc1[nH]nc2c1c(=O)n(CCF)c1ccc(-c3ccc(CN4CCCC4)s3)cc21` [Compound I-47, 5-(2-fluoroethyl)-3-methyl-8-[5-(pyrrolidin-1-ylmethyl)-2-thienyl]-2,5-dihydro-4H-pyrazolo[4,3-c]quinolin-4-one], the 50% inhibitory concentration (IC50) under setting [1] is < 500 nM.

For the compound `CCn1c(=O)c2c(C)[nH]nc2c2cc(-c3ccc(CN4CCc5ccccc5C4)s3)ccc21` [Compound I-48, 8-[5-(3,4-dihydroisoquinolin-2(1H)-ylmethyl)-2-thienyl]-5-ethyl-3-methyl-2,5-dihydro-4H-pyrazolo[4,3-c]quinolin-4-one], the IC50 is, setting by setting: under setting [2], < 1000 nM; under setting [1], > 500 nM.

As for `CCn1c(=O)c2c(C)[nH]nc2c2cc(-c3ccc(CN(C)C)s3)ccc21` [Compound I-50, 8-{5-[(dimethylamino)methyl]-2-thienyl}-5-ethyl-3-methyl-2,5-dihydro-4H-pyrazolo[4,3-c]quinolin-4-one], the IC50 under setting [1] is < 500 nM.

Consider `CCn1c(=O)c2c(C)[nH]nc2c2cc(-c3cnn(C)c3)ccc21` [Compound I-51, 5-ethyl-3-methyl-8-(1-methyl-1H-pyrazol-4-yl)-2,5-dihydro-4H-pyrazolo[4,3-c]quinolin-4-one], for which the IC50 was < 1000 nM under setting [2] and > 500 nM under setting [1].

For the compound `CCn1c(=O)c2c(C)[nH]nc2c2cc(-c3cn[nH]c3)ccc21` [Compound I-52, 5-ethyl-3-methyl-8-(1H-pyrazol-4-yl)-2,5-dihydro-4H-pyrazolo[4,3-c]quinolin-4-one], the IC50 is, setting by setting: under setting [2], < 1000 nM; under setting [1], > 500 nM.

Consider `CCn1c(=O)c2c(C)[nH]nc2c2cc(-c3ccc(CN4CCCC4)s3)ccc21` [Compound I-53, 5-ethyl-3-methyl-8-[5-(pyrrolidin-1-ylmethyl)-2-thienyl]-2,5-dihydro-4H-pyrazolo[4,3-c]quinolin-4-one], for which the IC50 under setting [1] was < 500 nM.

As to `CCn1c(=O)c2c(C)[nH]nc2c2cc(CCCN3CCCC3)ccc21` [Compound I-54, 5-ethyl-3-methyl-8-(3-pyrrolidin-1-ylpropyl)-2,5-dihydro-4H-pyrazolo[4,3-c]quinolin-4-one], the IC50 reads like this: under setting [2], < 1000 nM; under setting [1], > 500 nM.

As to `CCn1c(=O)c2c(C)[nH]nc2c2cc(-c3ccc(CN4CCCC4)o3)ccc21` [Compound I-55, 5-ethyl-3-methyl-8-[5-(pyrrolidin-1-ylmethyl)-2-furyl]-2,5-dihydro-4H-pyrazolo[4,3-c]quinolin-4-one], the IC50 under setting [1] was < 500 nM.

As to `CCCn1c(=O)c2c(C)[nH]nc2c2cc(-c3ccc(CN(C)C)s3)ccc21` [Compound I-56, 8-{5-[(dimethylamino)methyl]-2-thienyl}-3-methyl-5-propyl-2,5-dihydro-4H-pyrazolo[4,3-c]quinolin-4-one], the IC50 under setting [1] is < 500 nM.

In the case of `CCN(CC)CCc1ccc(-c2ccc3c(c2)c2n[nH]c(C)c2c(=O)n3CC)s1` [Compound I-82, 8-{5-[2-(diethylamino)ethyl]-2-thienyl}-5-ethyl-3-methyl-2,5-dihydro-4H-pyrazolo[4,3-c]quinolin-4-one], the IC50 under setting [1] is < 500 nM.

For `CCn1c(=O)c2c(C)[nH]nc2c2cc(-c3ccc(CN4CC[C@H](O)C4)s3)ccc21` [Compound I-83, 5-ethyl-8-(5-{[(3S)-3-hydroxypyrrolidin-1-yl]methyl}-2-thienyl)-3-methyl-2,5-dihydro-4H-pyrazolo[4,3-c]quinolin-4-one], the IC50 under setting [1] is < 500 nM.

(Values after patent US20060035920A1, “Chk-1 inhibitors” (Millennium Pharmaceuticals, Inc., priority 2004, published 2006).)
